For eleven compounds, IC50 results are on record in patent publication US9850283B2, “Macrocyclic inhibitors of the PD-1/PD-L1 and CD80(B7-1)/PD-L1 protein/protein interactions” (BRISTOL-MYERS SQUIBB COMPANY, priority 2013, dated 2017).

By IC50 is commonly meant the concentration at which inhibition is half-maximal.

Structures are written as SMILES. Like-named read-outs stand apart in the source and are kept apart here. Positions of bridges follow the written chain, without caps; N, C: chain ends. Non-standard residues stand in square brackets, D forms with d. Residues, ends and D or L forms follow the SMILES beside them. ξ: configuration not given here. *: point of attachment. Phe(2-F) = N[C@@H](Cc1ccccc1F)C(=O)O; Bta = N[C@@H](Cc1csc2ccccc12)C(=O)O; Cyclobutanecarbonyl = O=C(C1CCC1)*; Hyp = O=C(O)[C@@H]1C[C@@H](O)CN1; NMeF = CN[C@@H](Cc1ccccc1)C(=O)O; NMeNle = CCCC[C@H](NC)C(=O)O; NMeA = CN[C@@H](C)C(=O)O; Orn = NCCC[C@H](N)C(=O)O; Dab = NCC[C@H](N)C(=O)O; Dap = NC[C@H](N)C(=O)O; ξC = NC(CS)C(=O)O; Sar = CNCC(=O)O

One assay deals with T1, Human PD-L1/PD-1 (Homo sapiens, UniProt Q9NZQ7).
T1 construct: made in house; host or cells: HEK293T
The experiment in a line: HTRF PD-1-Ig/PD-L1-His binding assay (human PD-L1). To be noted: cluster symbol; read-out: HTRF IC50 cluster. In outline: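 The time-resolved fluorescence signal comes from Eu-cryptate anti-Ig (1 nM) and APC anti-His (20 nM) antibodies bound to a PD-1-Ig/PD-L1-His complex. Both partners lack transmembrane regions.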
(In TR-FRET formats the signal depends on donor and acceptor labels being close together.)

The target of assay [1] is T2, LK35.2-hPD-L1 cells / PE-labeled PD-1-Ig (Homo sapiens, UniProt Q9NZQ7).
T2 construct: expressed in transfected cells; host or cells: LK35.2 mouse B cell line
The experiment in a line: LK35.2-hPD-L1 cell binding high-content screening assay. The assay is classed as cell-based. To be noted: cluster symbol, read-out: CBA IC50 cluster. In short, it runs like this: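 Using overnight-cultured LK35.2-hPD-L1 mouse B cells, compound was co-incubated with phycoerythrin-tagged human PD-1-Ig (final 1 nM) at 37 °C for one hour. Unbound label was removed by triple dPBS washing prior to high-content image acquisition and analysis.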

[2] abbreviates: cell binding assay, cell line not given.
[3] abbreviates: cell line of CBA not given (LK35.2-hPD-L1 or 293T-hPD-L1).

T2 sequence (Q9NZQ7 19-290): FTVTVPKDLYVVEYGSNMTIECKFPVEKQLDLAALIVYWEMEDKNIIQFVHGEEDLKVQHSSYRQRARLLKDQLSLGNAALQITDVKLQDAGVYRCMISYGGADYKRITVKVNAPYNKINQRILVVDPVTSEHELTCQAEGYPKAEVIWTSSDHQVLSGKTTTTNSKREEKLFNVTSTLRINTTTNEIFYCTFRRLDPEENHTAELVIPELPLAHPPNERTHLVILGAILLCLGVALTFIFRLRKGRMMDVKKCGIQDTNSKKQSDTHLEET
T1 sequence (Q9NZQ7 with tags, fused parts or gaps): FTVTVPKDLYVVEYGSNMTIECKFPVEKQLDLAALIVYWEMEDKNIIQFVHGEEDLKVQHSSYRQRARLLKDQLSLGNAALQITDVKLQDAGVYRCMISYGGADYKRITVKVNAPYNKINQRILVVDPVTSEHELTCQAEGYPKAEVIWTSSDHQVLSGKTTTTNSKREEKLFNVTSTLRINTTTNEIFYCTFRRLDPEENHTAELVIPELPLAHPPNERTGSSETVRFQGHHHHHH

Take `CCCC[C@H]1C(=O)N(C)[C@@H](CCCC)C(=O)N[C@@H](CCN)C(=O)N[C@H](C(=O)NCC(N)=O)CSCC(=O)N[C@@H](Cc2ccc(O)cc2)C(=O)N(C)[C@@H](C)C(=O)N[C@@H](CC(=O)O)C(=O)N2CCC[C@H]2C(=O)N[C@@H](Cc2cnc[nH]2)C(=O)N[C@@H](CCC(N)=O)C(=O)N2C[C@H](O)C[C@H]2C(=O)N[C@@H](Cc2c[nH]c3ccccc23)C(=O)N[C@@H](CCN)C(=O)N[C@@H](Cc2c[nH]c3ccccc23)C(=O)N1C` [Example 5046] ({CH2CO}-Y[NMeA]DPHQ[Hyp]W[Dab]W[NMeNle][NMeNle][Dab]CG-NH2; thioether N-14): the half-maximal inhibitory concentration (IC50) was 0.385 to 6.74 nM at Human PD-L1/PD-1 and over 74.3 nM in assay [1] (setting [2]).

Take `CCCC[C@H]1C(=O)N(C)[C@@H](CCCC)C(=O)N[C@@H](CCN)C(=O)N[C@H](C(=O)NCC(N)=O)CSCC(=O)N[C@@H](Cc2ccc(O)cc2)C(=O)N(C)[C@@H](C)C(=O)N[C@@H](CC(N)=O)C(=O)N2CCC[C@H]2C(=O)N[C@@H](Cc2cnc[nH]2)C(=O)N[C@@H](CCC(N)=O)C(=O)N2C[C@H](O)C[C@H]2C(=O)N[C@@H](Cc2csc3ccccc23)C(=O)N[C@@H](CCN)C(=O)N[C@@H](Cc2c[nH]c3ccccc23)C(=O)N1C` [Example 5056] ({CH2CO}-Y[NMeA]NPHQ[Hyp][Bta][Dab]W[NMeNle][NMeNle][Dab]CG-NH2; thioether N-14): the IC50 on Human PD-L1/PD-1 was over 30.5 nM; in assay [1] (setting [2]), over 74.3 nM.

As for `CCCC[C@H]1C(=O)N(C)CC(=O)N[C@@H](CC(=O)O)C(=O)N[C@@H](C(C)C)C(=O)N(C)[C@@H](Cc2ccccc2)C(=O)N[C@@H](Cc2ccc(O)cc2)C(=O)N(C)CC(=O)N[C@@H](Cc2c[nH]c3ccccc23)C(=O)N[C@@H](Cc2ccc(O)cc2)C(=O)N[C@@H](CN)C(=O)N[C@H](C(=O)NCC(N)=O)CSCC(=O)N[C@@H](Cc2ccccc2)C(=O)N(C)[C@@H](Cc2ccccc2)C(=O)N1C` [Example 3161] ({CH2CO}-F[NMeF][NMeNle][Sar]DV[NMeF]Y[Sar]WY[Dap]CG-NH2; thioether N-13), the IC50 on Human PD-L1/PD-1 was 6.76 to 30.3 nM; in assay [1] (setting [3]) it was 4.78 to 72.9 nM.

Regarding `CCCC[C@H]1C(=O)N(C)[C@@H](CCCC)C(=O)N[C@@H](CCCNC(=N)N)C(=O)N[C@H](C(=O)NCC(N)=O)CSCC(=O)N[C@@H](Cc2ccc(O)cc2)C(=O)N(C)[C@@H](C)C(=O)N[C@@H](CC(N)=O)C(=O)N2CCC[C@H]2C(=O)N[C@@H](Cc2cnc[nH]2)C(=O)N[C@@H](CCCN)C(=O)N2C[C@H](O)C[C@H]2C(=O)N[C@@H](Cc2c[nH]c3ccccc23)C(=O)N[C@@H](CO)C(=O)N[C@@H](Cc2c[nH]c3ccccc23)C(=O)N1C` [Example 5023] ({CH2CO}-Y[NMeA]NPH[Orn][Hyp]WSW[NMeNle][NMeNle]RCG-NH2; thioether N-14), the concentration for half-maximal inhibition (IC50) on Human PD-L1/PD-1 lay in the range of 6.76 to 30.3 nM; in assay [1] (setting [2]), 4.78 to 72.9 nM.

As to `CCCC[C@H]1C(=O)N(C)CC(=O)N[C@@H](CC(=O)O)C(=O)N[C@@H](C(C)C)C(=O)N(C)[C@@H](Cc2ccccc2)C(=O)N[C@@H](Cc2ccc(O)cc2)C(=O)N(C)CC(=O)N[C@@H](Cc2c[nH]c3ccccc23)C(=O)N[C@@H](Cc2ccc(O)cc2)C(=O)N[C@@H](CC(C)C)C(=O)N[C@H](C(=O)NCC(N)=O)CSCC(=O)N[C@@H](Cc2ccccc2F)C(=O)N(C)[C@@H](Cc2ccccc2)C(=O)N1C` [Example 3568] ({CH2CO}-[Phe(2-F)][NMeF][NMeNle][Sar]DV[NMeF]Y[Sar]WYLCG-NH2; thioether N-13), the IC50 on Human PD-L1/PD-1 was over 30.5 nM; in assay [1] (setting [2]), 4.78 to 72.9 nM.

Regarding `CCCC[C@H]1C(=O)N(C)[C@@H](CCCC)C(=O)N[C@@H](CCCNC(=N)N)C(=O)NC(C(=O)NCC(N)=O)CSCC(=O)N[C@@H](Cc2ccc(O)cc2)C(=O)N(C)[C@@H](CO)C(=O)N[C@@H](CC(N)=O)C(=O)N2CCC[C@H]2C(=O)N[C@@H](Cc2cnc[nH]2)C(=O)N[C@@H](CC(C)C)C(=O)N2C[C@H](O)C[C@H]2C(=O)N[C@@H](Cc2c[nH]c3ccccc23)C(=O)N[C@@H](CO)C(=O)N[C@@H](Cc2c[nH]c3ccccc23)C(=O)N1C` (stereo partly shown) [Example 9036], the values for the half-maximal inhibitory concentration (IC50) (on Human PD-L1/PD-1; in assay [1] (setting [2])) were 0.385 to 6.74 nM and 0.158 to 4.71 nM, respectively.

For `CCCC[C@H]1C(=O)N[C@@H](CCCNC(=N)N)C(=O)N[C@H](C(=O)NCC(N)=O)CSCC(=O)N[C@@H](Cc2ccccc2)C(=O)N(C)[C@@H](C)C(=O)N[C@@H](CC(N)=O)C(=O)N2CCC[C@H]2C(=O)N[C@@H](Cc2cnc[nH]2)C(=O)N[C@@H](CC(C)C)C(=O)N(C)CC(=O)N[C@@H](Cc2c[nH]c3ccccc23)C(=O)N[C@@H](CO)C(=O)N[C@@H](Cc2c[nH]c3ccccc23)C(=O)N[C@@H](CNC(=O)C2CCC2)C(=O)N1C` [Example 1011] ({CH2CO}-F[NMeA]NPHL[Sar]WSW[Dap](Cyclobutanecarbonyl)[NMeNle]RCG-NH2; thioether N-14), the IC50 at Human PD-L1/PD-1 was over 30.5 nM; in assay [1] (setting [3]), over 74.3 nM.

As to `CCCC[C@H]1C(=O)N(C)[C@@H](CCCC)C(=O)N[C@@H](CCCNC(=N)N)C(=O)NC(C(=O)NCC(N)=O)CSCC(=O)N[C@@H](Cc2ccc(O)cc2)C(=O)N(C)[C@@H](C)C(=O)N[C@@H](CC(N)=O)C(=O)N2CCC[C@H]2C(=O)N[C@@H](Cc2cnc[nH]2)C(=O)N[C@@H](CO)C(=O)N2CCC[C@H]2C(=O)N[C@@H](Cc2c[nH]c3ccccc23)C(=O)N[C@@H](CO)C(=O)N[C@@H](Cc2c[nH]c3ccccc23)C(=O)N1C` (stereo partly shown) [Example 9067] ({CH2CO}-Y[NMeA]NPHSPWSW[NMeNle][NMeNle]R[ξC]G-NH2; thioether N-14), the IC50 at Human PD-L1/PD-1 is 0.385 to 6.74 nM; in assay [1] (setting [2]), 0.158 to 4.71 nM.

On to `CCCC[C@H]1C(=O)N(C)[C@@H](CCCC)C(=O)N[C@@H](CCCN)C(=O)N[C@H](C(=O)NCC(N)=O)CSCC(=O)N[C@@H](Cc2ccc(O)cc2)C(=O)N(C)[C@@H](C)C(=O)N[C@@H](CC(N)=O)C(=O)N2CCC[C@H]2C(=O)N[C@@H](CN)C(=O)N[C@@H](CC(=O)O)C(=O)N2C[C@H](O)C[C@H]2C(=O)N[C@@H](Cc2c[nH]c3ccccc23)C(=O)N[C@@H](CCN)C(=O)N[C@@H](Cc2csc3ccccc23)C(=O)N1C` [Example 1186] ({CH2CO}-Y[NMeA]NP[Dap]D[Hyp]W[Dab][Bta][NMeNle][NMeNle][Orn]CG-NH2; thioether N-14), for which the values for the IC50 (on Human PD-L1/PD-1; in assay [1] (setting [3])) were 0.385 to 6.74 nM and 0.158 to 4.71 nM, respectively.

In the case of `CCCC[C@H]1C(=O)N(C)[C@@H](CCCC)C(=O)N[C@@H](CC(=O)O)C(=O)N[C@H](C(=O)NCC(N)=O)CSCC(=O)N[C@@H](Cc2ccccc2)C(=O)N(C)[C@@H](C)C(=O)N[C@@H](CC(=O)O)C(=O)N2CCC[C@H]2C(=O)N[C@@H](Cc2cnc[nH]2)C(=O)N[C@@H](CCCNC(=N)N)C(=O)N(C)CC(=O)N[C@@H](Cc2c[nH]c3ccccc23)C(=O)N[C@@H](CCCNC(=N)N)C(=O)N[C@@H](Cc2c[nH]c3ccccc23)C(=O)N1C` [Example 1056] ({CH2CO}-F[NMeA]DPHR[Sar]WRW[NMeNle][NMeNle]DCG-NH2; thioether N-14), the results for the IC50 (at Human PD-L1/PD-1; in assay [1] (setting [3])) were 6.76 to 30.3 nM and 4.78 to 72.9 nM, respectively.

Turning to `CCCC[C@H]1C(=O)N(C)[C@@H](CCCC)C(=O)N[C@@H](CCCN)C(=O)N[C@H](C(=O)NCC(N)=O)CSCC(=O)N[C@@H](Cc2ccc(O)cc2)C(=O)N(C)[C@@H](C)C(=O)N[C@@H](CC(N)=O)C(=O)N2CCC[C@H]2C(=O)N[C@@H](CN)C(=O)N[C@@H](CC(C)C)C(=O)N2C[C@H](O)C[C@H]2C(=O)N[C@@H](Cc2c[nH]c3ccccc23)C(=O)N[C@@H](CO)C(=O)N[C@@H](Cc2csc3ccccc23)C(=O)N1C` [Example 1139] ({CH2CO}-Y[NMeA]NP[Dap]L[Hyp]WS[Bta][NMeNle][NMeNle][Orn]CG-NH2; thioether N-14), the results for the IC50 (at Human PD-L1/PD-1; in assay [1] (setting [3])) were 0.385 to 6.74 nM and 0.158 to 4.71 nM, respectively.
